One data set deals with rat. The conditions noted are these: oral; cited from earlier work.
A further data set deals with wild bird. Particulars: oral; cited from earlier work.
Data set [1] can be described thus: Test for stability: HPLC content of active ingredient after storage at temperature and humidity. Type of data set: physicochemical. The text has this:
This experiment is designed to confirm the stability of amlodipine salt. It is essential for a drug to have sufficient stability in order to be formulated into a specific form of preparation. In particular, it is especially important to have an atmospheric stability for a drug to be formulated into tablets or capsules while aqueous stability is more important when a drug is formulated into an injection type of preparation.

The nature of a further data set: Light stability (UV). The class given is physicochemical. The text has this:
Table 4 represents the result of light stability of amlodipine gentisate salts of the present invention compared to that of amlodipine besylate and the total amount of UV light was 200 W·h/m^2.

Data set [2] has as its system Rats with congenital hypertension (SHR). Nature of the data set: Anti-hypertension activity, tail-cuff method. Type of data set: in vivo, rat. The conditions noted are these: oral. How it is done: Rats with congenital hypertension (SHR, male, 13-14 weeks old) were purchased from Charles River Co. (Japan). […] SHR were used those having systolic blood pressure of 170 mmHg or higher and each experimental group was composed of 8 rats. Blood pressure was measured using Multichannel 8000 (TSE Co., Germany) according to the tail-cuff method. […] […] The result of measurements was indicated in S.E.M. Statistical analysis of the measurements was performed by using Sigma Stat program (Jandel Co., USA) with respect to unpaired t-test and one-way analysis of variance (ANOVA) and the second evaluation was performed via Dunnett multiple comparisons test.

The conditions of data set [3]: Sprague-Dawley (printed: Sprague Dowry), rat, in vivo, po, 10 mg/kg.
Experimental: The blood samples were centrifuged for 2 min at 14,000 rpm to obtain blood plasma. 80 μL of the blood plasma was mixed with 240 μL of methanol and vortexed for 10 sec and centrifuged again for 2 min at 14,000 rpm.
The mark [4] stands for this setting: UV, total amount of UV light 200 W·h/m^2.

Structures can show the parent of a compound that is named as a salt.

As to `O=S(=O)(O)c1ccccc1` [Benzenesulfonic acid, benzenesulfonic acid], the LD50 with rat is 890 µL/kg; in the data set on wild bird, 75 mg/kg.

Regarding `CCOC(=O)C1=C(COCCN)NC(C)=C(C(=O)OC)[C@@H]1c1ccccc1Cl.O=S(=O)(O)c1ccccc1` [S-(−)-amlodipine besylate], the “Content of active ingredients at 40° C. with 75% humidity” value (“Content … at 40° C. with 75% humidity” below) is given as 101.1% in data set [1] (2 weeks), 101.7% in data set [1] (4 weeks), 101.6% in data set [1] (8 weeks) and 100% in data set [1] (initial). In addition, the “Content of active ingredients at 60° C. with 75% humidity” value (“Content … at 60° C. with 75% humidity” for short) in data set [1] (2 weeks) is reported as 100.1%; in data set [1] (4 weeks) it was 98.5%; in data set [1] (8 weeks), 96.3%; in data set [1] (initial) it was 100%. The “Content of active ingredients” value in the data set “Light stability (UV)” (setting [4]) is on record as 90.1%; in the data set “Light stability (UV)” (initial) it was 100%.

In the case of `CCOC(=O)C1=C(COCCN)NC(C)=C(C(=O)OC)C1c1ccccc1Cl.O=S(=O)(O)c1ccccc1` (racemic) [(±)-amlodipine besylate], the “Content … at 40° C. with 75% humidity” value was 99.9% in data set [1] (2 weeks), 99.8% in data set [1] (4 weeks), 99.2% in data set [1] (8 weeks) and 100% in data set [1] (initial). In addition, the “Content … at 60° C. with 75% humidity” value came to 98.7% in data set [1] (2 weeks), 97.4% in data set [1] (4 weeks), 98.1% in data set [1] (8 weeks) and 100% in data set [1] (initial). In addition, the “Content of active ingredients” value is given as 88.3% in the data set “Light stability (UV)” (setting [4]) and 100% in the data set “Light stability (UV)” (initial). The “Time after administration at which a significant decrease in blood pressure started” value in data set [2] was 30 min. Also, in data set [2], the “Time after administration at which the decrease in blood pressure reached the peak” value worked out at 1 h. In addition, the “Time after administration until which the anti-hypertension effect was significant” value in data set [2] came to 6 h. Besides, the “Decrease in Blood Pressure (maximum anti-hypertension effect)” value in data set [2] (2.5 mg/kg) came out at 20.8±7.3%; in data set [2] (5.0 mg/kg) it was 28.6±7.5%.

In the case of `CCOC(=O)C1=C(COCCN)NC(C)=C(C(=O)OC)[C@@H]1c1ccccc1Cl` [S-(−)-amlodipine gentisate, (S)-(−)-Amlodipine Gentisate Salt], the “Content … at 40° C. with 75% humidity” value in data set [1] (2 weeks) is 102.9%; in data set [1] (4 weeks), 103.5%; in data set [1] (8 weeks), 102.3%; in data set [1] (initial), 100%. The “Content … at 60° C. with 75% humidity” value is recorded as 100.1% in data set [1] (2 weeks), 103.0% in data set [1] (4 weeks), 99.9% in data set [1] (8 weeks) and 100% in data set [1] (initial). The “Content of active ingredients” value in the data set “Light stability (UV)” (setting [4]) was 100.7%; in the data set “Light stability (UV)” (initial), 100%. The “Light stability compared to conventional amlodipine besylate salts” value in “Light stability (UV)” (under UV or visible light) is listed as “superior light stability”. Also, the “Time after administration at which a significant decrease in blood pressure started” value in data set [2] is 30 min. The “Time after administration at which the decrease in blood pressure reached the peak” value in data set [2] was 1 h. The “Time after administration until which the anti-hypertension effect was significant” value in data set [2] came out at 6 h. In addition, the “Decrease in Blood Pressure (maximum anti-hypertension effect)” value in data set [2] (1.25 mg/kg) is reported as 19.8±5.5%; in data set [2] (2.5 mg/kg) it was 24.5±7.9%. The “Period of highest concentration in blood after administration” value in data set [3] is 4 to 6 h.

The record behind these values is patent US7442714B2, “Amlodipine gentisate and a method of its preparation” (SK Chemicals Co., Ltd., priority 2003, dated 2008).
